Test in all cases: NCI-60 cell line screen, 48 h
For assay [1], the system named is DU-145.
Assay [2] has as its system HCC 2998.
For assay [3], the system named is HCT-15.
The test system of assay [4] is HOP-92.
Assay [5] relates to K562.
The test system of assay [6] is M14.
For assay [7], the system named is MDA-MB-231.
The test system of assay [8] is MOLT-4.
The subject of assay [9] is NCI-H226.
Assay [10] concerns NCI-H23.
Assay [11] relates to OVCAR-3.
The test system of assay [12] is OVCAR-5.
The subject of assay [13] is OVCAR-8.
For assay [14], the system named is RPMI-8226.
Assay [15] concerns SK-MEL-28.
Assay [16] concerns SW-620.
The test system of assay [17] is T47D.
The subject of assay [18] is CCRF-CEM.
The subject of assay [19] is SF-539.
Assay [20] has as its system SK-OV-3.

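Test compounds were applied to cells in 96-well plates for 48 hours at 5 doses. GI50 marks 50% less growth.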 Calls of active or inactive are those of the source. Rule as the data show it: active = GI50 up to about 1.1 µM and inactive = higher.

`Cc1cc(OCC(=O)O)c(Cl)cc1Cl`: the GI50 in assay [1] was > 100 µM (inactive); in assay [2] it was > 100 µM (inactive); in [3] it was more than 100 µM; in assay [4], > 100 µM (inactive); in assay [5], > 100 µM (inactive); in assay [6], > 100 µM (inactive). The GI50 in assay [7], in assay [8], in assay [9], in assay [10], in [11] and in assay [12] was > 100 µM (inactive) in each case. The GI50 in assay [13] is > 100 µM (inactive); in assay [14], 81.3 µM (inactive); in [15], > 100 µM (inactive); in assay [16] it was > 100 µM (inactive); in assay [17], > 100 µM (inactive).

Turning to `CCOc1ncn(-c2ccc(NC(=S)NC34CC5CC(CC(C5)C3)C4)cc2)n1`, the GI50 in [18] was > 100 µM (inactive); in assay [1] it was > 100 µM (inactive); in [2] it was > 100 µM (inactive); in [3] it was more than 100 µM; in [4] it was 25 µM (inactive); in [5], > 100 µM (inactive). The GI50 in [6] was 61.9 µM (inactive); in [7], 76.4 µM (inactive); in [8] it was > 100 µM (inactive); in assay [10], > 100 µM (inactive); in assay [11], > 100 µM (inactive); in assay [12], > 100 µM (inactive). Besides, the GI50 in assay [13] is 22.8 µM (inactive); in assay [14], > 100 µM (inactive); in assay [19] it was > 100 µM (inactive); in assay [15], 61.8 µM (inactive); in [20], 33.2 µM (inactive); in assay [16], > 100 µM (inactive). Further, in [17], the GI50 was > 100 µM (inactive).

On to `CCCCCCCC(CC(=O)NC(CO)C(=O)NC(CO)CC(C)C)OC(=O)CC(CCCCCCC)OC(=O)CC(CCCCCCC)OC1OC(C)C(O)C(OC2OC(C)C(O)C(OC(C)=O)C2O)C1O` (configuration not stated), for which the GI50 in assay [18] is 5.2 µM (inactive); in [1], 10.4 µM (inactive); in [2], 11.2 µM (inactive); in [4], 10.9 µM (inactive); in assay [5], 12.4 µM (inactive); in assay [6], 10.7 µM (inactive). Besides, the GI50 was 11.3 µM (inactive) in assay [7]; 2.81 µM (inactive) in assay [8]; 17.4 µM (inactive) in assay [9]; 14.2 µM (inactive) in assay [10]; 10.7 µM (inactive) in [11]; 11.7 µM (inactive) in assay [12]. Moreover, the GI50 is 13.9 µM (inactive) in [13]; 12.1 µM (inactive) in assay [19]; 12.2 µM (inactive) in [15]; 17 µM (inactive) in [20]; 14.9 µM (inactive) in assay [16]; 12.9 µM (inactive) in assay [17].

Take `O=C1c2cccc3cc([N+](=O)[O-])cc(c23)C(=O)N1c1ccc(OCCN2CCCC2)cc1`: the GI50 is 18.6 µM (inactive) in assay [18]; 23.3 µM (inactive) in assay [1]; 17.1 µM (inactive) in assay [2]; 14.2 µM in assay [3]; 24.3 µM (inactive) in [4]; 20 µM (inactive) in assay [6]. Besides, the GI50 in assay [7] was 43.2 µM (inactive); in assay [8] it was 4.85 µM (inactive); in [9] it was 9.35 µM (inactive); in assay [10] it was 17.6 µM (inactive); in [12], 19.4 µM (inactive); in [13] it was 19.8 µM (inactive). Moreover, the GI50 in assay [19] is 13.3 µM (inactive); in [15] it was 23 µM (inactive); in [16], 17.2 µM (inactive); in [17], > 100 µM (inactive).

With `O=C(N[C@@H](c1ccccc1)[C@@H](O)C(=O)OCc1ccc([N+](=O)[O-])cc1)c1ccccc1`, the GI50 in [18] is 67.6 µM (inactive); in assay [1], > 100 µM (inactive); in [2], > 100 µM (inactive); in [3] it was more than 100 µM; in assay [4], > 100 µM (inactive); in assay [5], 51.3 µM (inactive). Further, the GI50 was > 100 µM (inactive) in [7]; 25.8 µM (inactive) in assay [8]; > 100 µM (inactive) in assay [9]; > 100 µM (inactive) in [10]; > 100 µM (inactive) in assay [11]; > 100 µM (inactive) in assay [12]. Further, the GI50 in assay [13], in assay [19], in assay [20], in assay [16] and in [17] was > 100 µM (inactive) in each case.

In the case of `O=C1Cc2c([nH]c3ccccc23)C2(CC3CCCCN13)OCCO2` (configuration not stated), the GI50 in assay [18] is 90.4 µM (inactive); in assay [1] it was > 100 µM (inactive); in [2], 90.6 µM (inactive); in [3], more than 100 µM; in assay [4], 34.2 µM (inactive); in assay [6] it was > 100 µM (inactive). In addition, the GI50 in [7] is 84.5 µM (inactive); in [9], > 100 µM (inactive); in assay [10], > 100 µM (inactive); in assay [11], > 100 µM (inactive); in [12], > 100 µM (inactive); in assay [13], > 100 µM (inactive). The GI50 in assay [14], in assay [15], in assay [20], in [16] and in [17] was > 100 µM (inactive) in each case.

For the compound `Cn1c2ccccc2c2c(=S)c3ccccc3ccc21`, the GI50 in assay [18] is 19 µM (inactive); in assay [1] it was 88.9 µM (inactive); in assay [2] it was > 100 µM (inactive); in assay [3] it was more than 100 µM; in assay [4], > 100 µM (inactive); in assay [5] it was 43.5 µM (inactive). Besides, the GI50 in [6] is > 100 µM (inactive); in assay [7], > 100 µM (inactive); in assay [8], 16.2 µM (inactive); in assay [9], 50.5 µM (inactive); in assay [10], > 100 µM (inactive); in [11], 17.8 µM (inactive). Further, the GI50 in assay [12] is > 100 µM (inactive); in assay [13], 56.5 µM (inactive); in assay [15], > 100 µM (inactive); in assay [20], > 100 µM (inactive); in assay [16], > 100 µM (inactive); in assay [17], 20.7 µM (inactive).

Regarding `CC(/C=N\NC(=S)N(C)C)=N/NC(=S)N(C)C`, the GI50 in assay [1] is 0.195 µM (active); in [2] it was 2.49 µM (inactive); in assay [3], 0.07 µM; in assay [4] it was 1.84 µM (inactive); in assay [5], 0.582 µM (active); in assay [6] it was 0.393 µM (active). The GI50 in assay [7] is 29 µM (inactive); in assay [8], 0.0397 µM (active); in assay [9] it was 0.843 µM (active); in assay [10] it was 1.12 µM (inactive); in [11], 0.317 µM (active); in [12], 10.9 µM (inactive). For the same compound, the GI50 is 0.308 µM (active) in [13]; 0.791 µM (active) in [14]; 0.74 µM (active) in assay [19]; 4.52 µM (inactive) in assay [15]; 0.484 µM (active) in assay [20]; 0.0832 µM (active) in [16]. The GI50 in assay [17] is 0.0935 µM (active).

In the case of `CC(=O)C(C(=O)c1ccc(C)cc1)[C@@H]1OC(C)(C)O[C@@H]1[C@H]1COC(C)(C)O1` (some centres not stated), the GI50 was 1.27 µM (inactive) in [18]; 7.74 µM (inactive) in [1]; 25.1 µM (inactive) in assay [2]; 8.3 µM in assay [3]; 35.2 µM (inactive) in assay [4]; 2.05 µM (inactive) in [5]. Also, the GI50 is 11.3 µM (inactive) in [6]; 10.5 µM (inactive) in assay [7]; 2.61 µM (inactive) in [8]; 9.53 µM (inactive) in assay [10]; 7.66 µM (inactive) in assay [11]; 40.9 µM (inactive) in assay [12]. Besides, the GI50 is 7.26 µM (inactive) in assay [13]; 2.36 µM (inactive) in [14]; 5.79 µM (inactive) in assay [19]; 20.8 µM (inactive) in [15]; 51.2 µM (inactive) in assay [20]; 3.55 µM (inactive) in assay [16]. In assay [17], the GI50 is 11.4 µM (inactive).

`CCOP(=O)(OCC)/C(C#N)=C/c1cccn1C(C)C`: the GI50 was > 100 µM (inactive) in [1]; > 100 µM (inactive) in assay [2]; more than 100 µM in assay [3]; > 100 µM (inactive) in [4]; > 100 µM (inactive) in assay [5]; > 100 µM (inactive) in [6]. Besides, the GI50 in [7], in [8], in assay [9], in assay [10], in assay [11] and in assay [12] was > 100 µM (inactive) in each case. Besides, the GI50 in [13], in assay [19], in [15], in [20], in assay [16] and in assay [17] was > 100 µM (inactive) in each case.

As to `Cc1ccc2c(c1)NC(=O)CC(c1ccccc1)=N2`, the GI50 is > 100 µM (inactive) in assay [1]; > 100 µM (inactive) in assay [2]; 61.4 µM in assay [3]; > 100 µM (inactive) in assay [4]; 5.18 µM (inactive) in assay [5]; > 100 µM (inactive) in assay [6]. Also, the GI50 in assay [7] is 23.7 µM (inactive); in assay [8], 28.6 µM (inactive); in assay [9], > 100 µM (inactive); in assay [10], > 100 µM (inactive); in assay [11] it was > 100 µM (inactive); in [12] it was > 100 µM (inactive). Also, the GI50 in assay [13] is > 100 µM (inactive); in assay [14], 17.4 µM (inactive); in assay [19] it was > 100 µM (inactive); in assay [15], > 100 µM (inactive); in assay [20], > 100 µM (inactive); in [16], > 100 µM (inactive). Moreover, the GI50 in assay [17] was 70.6 µM (inactive).

Values taken from ChEMBL document CHEMBL1201862, “PubChem BioAssay data set” (2004).
